Assay [1] concerns Escherichia coli. Nature of the assay: Induction of plasma membrane disruption in Escherichia coli ATCC 25922 at 2 mg/mL after 2 hrs by Sytox dye based assay. Type of assay: functional, organism-based.
In assay [2] the test system is Escherichia coli. The assay can be described thus: Induction of plasma membrane disruption in Escherichia coli ATCC 25922 at 2 mg/mL after 10 mins by Sytox dye based assay. Type of assay: functional, organism-based.
The subject of assay [3] is Staphylococcus aureus. Nature of the assay: Induction of redox process disruption in Staphylococcus aureus ATCC 25923 at 8 ug/mL after 6 hrs by CTC dye based assay. The assay is classed as functional, organism-based.
The test system of assay [4] is Staphylococcus aureus. Nature of the assay: Induction of redox process disruption in Staphylococcus aureus ATCC 25923 at 0.064 ug/mL after 6 hrs by CTC dye based assay. Type of assay: functional, organism-based.
In assay [5] the test system is Escherichia coli. The assay can be described thus: Induction of redox process disruption in Escherichia coli ATCC 25922 at 4 ug/mL after 2 hrs by CTC dye based assay. Type of assay: functional, organism-based.
In assay [6] the test system is Staphylococcus aureus. Nature of the assay: Induction of plasma membrane disruption in Staphylococcus aureus ATCC 25923 at 8 ug/mL after 10 mins by Sytox dye based assay. The assay is classed as functional, organism-based.
Assay [7] has as its system Staphylococcus aureus. The assay can be described thus: Antibacterial activity against Staphylococcus aureus ATCC 25923 after 12 to 18 hrs by broth dilution method. Type of assay: functional. For orientation: In broth dilution the organism is exposed to a series of concentrations in liquid medium.
Assay [8] relates to Escherichia coli. Nature of the assay: Induction of redox process disruption in Escherichia coli ATCC 25922 at 2 mg/mL after 2 hrs by CTC dye based assay. The assay is classed as functional, organism-based.
For assay [9], the system named is Staphylococcus aureus. The assay can be described thus: Induction of plasma membrane disruption in Staphylococcus aureus ATCC 25923 at 8 ug/mL after 2 hrs by Sytox dye based assay. The assay is classed as functional, organism-based.
The subject of assay [10] is Staphylococcus aureus. Nature of the assay: Induction of redox process disruption in Staphylococcus aureus ATCC 25923 at 8 ug/mL after 2 hrs by CTC dye based assay. The assay is classed as functional, organism-based.
Assay [11] has as its system Staphylococcus aureus. Nature of the assay: Induction of plasma membrane disruption in Staphylococcus aureus ATCC 25923 at 0.064 ug/mL after 10 mins by Sytox dye based assay. The assay is classed as functional, organism-based.
For assay [12], the system named is Escherichia coli. Nature of the assay: Induction of plasma membrane disruption in Escherichia coli ATCC 25922 at 4 ug/mL after 2 hrs by Sytox dye based assay. The assay is classed as functional, organism-based.
The test system of assay [13] is Escherichia coli. Nature of the assay: Induction of plasma membrane disruption in Escherichia coli ATCC 25922 a 4 ug/mL after 10 mins by Sytox dye based assay. Type of assay: functional, organism-based.
Assay [14] relates to Escherichia coli. The assay can be described thus: Induction of redox process disruption in Escherichia coli ATCC 25922 at 4 ug/mL after 6 hrs by CTC dye based assay. The assay is classed as functional, organism-based.
For assay [15], the system named is Staphylococcus aureus. The assay can be described thus: Induction of plasma membrane disruption in Staphylococcus aureus ATCC 25923 at 0.064 ug/mL after 2 hrs by Sytox dye based assay. The assay is classed as functional, organism-based.
For assay [16], the system named is Escherichia coli. Nature of the assay: Antibacterial activity against Escherichia coli ATCC 25922 after 12 to 18 hrs by broth dilution method. The assay is classed as functional.
The subject of assay [17] is Staphylococcus aureus. The assay can be described thus: Induction of redox process disruption in Staphylococcus aureus ATCC 25923 at 0.064 ug/mL after 2 hrs by CTC dye based assay. Type of assay: functional, organism-based.
Assay [18] deals with Escherichia coli. Nature of the assay: Induction of redox process disruption in Escherichia coli ATCC 25922 at 2 mg/mL after 6 hrs by CTC dye based assay. Type of assay: functional, organism-based.

This note sets out measurements from ChEMBL document CHEMBL1909640, “Mode of action investigation for the antibacterial cationic anthraquinone analogs” (2011).

The source made the active and inactive calls. The rule behind the calls is not given here.

Hexadecyltrimethylammonium bromide: the outcome in [1] and in [2] was Active.
The term MIC denotes the lowest concentration found to suppress growth. High values mean a need for much substance, low ones inhibition by little substance. As for `CCCCCCCCCCn1n[n+](C)c2c1C(=O)c1ccccc1C2=O.[Cl-]`, the result in [3], in assay [8], in [10], in assay [1], in [2] and in assay [18] was Active. Besides, the outcome in [4], in [5], in assay [6], in assay [9], in [11] and in assay [12] was inactive. Besides, the outcome in assay [13], in [14], in assay [15] and in assay [17] was inactive. Moreover, the values for the MIC in [7] and in [16] were 0.032 µg/mL and 32 µg/mL, respectively.
On to `CCCCCCCCCCCn1n[n+](C)c2c1C(=O)c1ccccc1C2=O.[Cl-]`, for which the result in assay [3], in assay [8], in [10], in [1], in assay [2] and in assay [18] was Active. For the same compound, the outcome in assay [4], in [5], in assay [6], in assay [9], in assay [11] and in assay [12] was inactive. For the same compound, the result in assay [13], in assay [14], in [15] and in [17] was inactive. Further, the minimal inhibitory concentration (MIC) in assay [7] came out at 0.25 µg/mL; in assay [16], 32 µg/mL.
On to `CCCCCCCCCCCCn1n[n+](C)c2c1C(=O)c1ccccc1C2=O.[Cl-]`, for which the outcome in [3], in assay [8], in assay [10], in assay [1], in assay [2] and in assay [18] was Active. Also, the result in assay [4], in assay [5], in [6], in assay [9], in assay [11] and in assay [12] was inactive. The outcome in assay [13], in assay [14], in assay [15] and in [17] was inactive. Also, the minimum inhibitory concentration (MIC) was found to be 0.064 µg/mL in assay [7] and 16 µg/mL in assay [16].
Turning to `CCCCCCCCCCCCCCCCn1n[n+](C)c2c1C(=O)c1ccccc1C2=O.[Cl-]`, the result in assay [3], in assay [8], in assay [10], in assay [1], in [2] and in assay [18] was Active. For the same compound, the result in assay [4], in assay [5], in assay [6], in assay [9], in assay [11] and in [12] was inactive. For the same compound, the outcome in assay [13], in assay [14], in assay [15] and in assay [17] was inactive. The MIC in assay [7] is 0.25 µg/mL; in assay [16], not below 250 µg/mL.
Regarding `CCCCCCCCn1n[n+](CC)c2c1C(=O)c1ccccc1C2=O.[Cl-]`, the outcome in assay [3], in assay [8], in assay [10], in [1], in assay [2] and in assay [18] was Active. Further, the outcome in assay [4], in assay [5], in [6], in assay [9], in assay [11] and in assay [12] was inactive. The outcome in [13], in assay [14], in [15] and in [17] was inactive. Further, the results for the MIC in assay [7] and in assay [16] were 0.25 µg/mL and not below 250 µg/mL, respectively.
Consider `CCCCCCCCn1n[n+](C)c2c1C(=O)c1ccccc1C2=O.[Cl-]`, for which the outcome in [3], in [8], in assay [10], in assay [1], in [2] and in [18] was Active. Besides, the result in assay [4], in assay [5], in [6], in [9], in assay [11] and in assay [12] was inactive. For the same compound, the outcome in [13], in [14], in assay [15] and in [17] was inactive. Also, the MIC in [7] was 0.032 µg/mL; in [16], 16 µg/mL.
Turning to `CCCCCCCCCn1n[n+](C)c2c1C(=O)c1ccccc1C2=O.[Cl-]`, the result in [3], in [8], in assay [10], in assay [1], in assay [2] and in assay [18] was Active. Also, the result in [4], in [5], in assay [6], in assay [9], in assay [11] and in assay [12] was inactive. Moreover, the outcome in assay [13], in [14], in assay [15] and in [17] was inactive. For the same compound, the minimum inhibitory concentration (MIC) in [7] stood at 0.032 µg/mL; in [16] it was 64 µg/mL.
